The results in this text go back to ChEMBL document CHEMBL1201862, “PubChem BioAssay data set” (2004).

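Cultured in 96-well plates, cells were exposed to test compound for 48 hours across five concentrations. At the GI50, growth is halved.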 Activity calls are given as the source filed them. No stated cut-off is given here; in the data, active = GI50 up to about 1.1 µM and inactive = higher. Some results are limits rather than exact numbers.

What all share (test): growth of human tumour cells (NCI), 48 h
In experiment [1] the test system is K562.
Experiment [2] deals with A498.
For experiment [3], the system named is HCT-15.
For experiment [4], the system named is ACHN.
In experiment [5] the test system is NCI-H23.
Experiment [6] relates to SK-MEL-28.
The subject of experiment [7] is SF-295.
Experiment [8] has as its system T47D.
The test system of experiment [9] is HCC 2998.
Experiment [10] concerns HT-29.
The test system of experiment [11] is MDA-MB-231.
Experiment [12] deals with MCF7.
Experiment [13] relates to CCRF-CEM.
Experiment [14] deals with NCI-H460.
Experiment [15] relates to RPMI-8226.
Experiment [16] deals with SN12C.
For experiment [17], the system named is NCI-H226.
The test system of experiment [18] is SK-MEL-5.
Experiment [19] has as its system BT-549.

Consider `CC(=O)Nc1n[n+]([O-])c2cc(C)ccc2[n+]1[O-]`, for which the GI50 was 1.94 µM (inactive) in [1]; 5.22 µM (inactive) in [2]; 1700 nM in [3]; 2.33 µM (inactive) in [4]; 2.19 µM (inactive) in experiment [5]; 17 µM (inactive) in experiment [6]. Besides, the GI50 was 2.5 µM (inactive) in experiment [7]; 2.34 µM (inactive) in experiment [8]; 3.84 µM (inactive) in experiment [9]; 2.52 µM (inactive) in experiment [10]; 6.81 µM (inactive) in experiment [11]; 0.296 µM (active) in [12]. In addition, the GI50 in [13] was 2.05 µM (inactive); in experiment [14], 0.378 µM (active); in experiment [15], 2.83 µM (inactive); in [16], 3.05 µM (inactive); in experiment [17], 4.32 µM (inactive); in experiment [18] it was 1.51 µM (inactive). Moreover, in experiment [19], the GI50 was 3.39 µM (inactive).
As to `Cc1ccc(NC(Nc2ccc(C)cc2C)=C(/C=C(\Cl)[N+](=O)[O-])[N+](=O)[O-])c(C)c1`, the GI50 is 1.46 µM (inactive) in experiment [1]; 18.2 µM (inactive) in experiment [2]; 2920 nM in [3]; 2.97 µM (inactive) in [4]; 5.94 µM (inactive) in [5]; 2.34 µM (inactive) in [6]. Also, the GI50 is 16.6 µM (inactive) in experiment [7]; 1.72 µM (inactive) in [8]; 23.3 µM (inactive) in experiment [9]; 5.43 µM (inactive) in experiment [10]; 4.94 µM (inactive) in experiment [11]; 2.83 µM (inactive) in experiment [12]. In addition, the GI50 was 0.301 µM (active) in [13]; 16.6 µM (inactive) in experiment [14]; 1.55 µM (inactive) in [15]; 4.53 µM (inactive) in [16]; 7 µM (inactive) in experiment [17]; 5.9 µM (inactive) in experiment [18]. Moreover, the GI50 in [19] was 3.46 µM (inactive).
`COc1ccc2c(c1)/c(=C/C#N)c1c3ccccc3[n+](C)n21`: the GI50 in [1] was 8.69 µM (inactive); in experiment [2] it was 1.7 µM (inactive); in experiment [3], 20100 nM; in experiment [4] it was 9.38 µM (inactive); in experiment [5] it was 5.3 µM (inactive); in experiment [6], 5.58 µM (inactive). In addition, the GI50 is 7.69 µM (inactive) in [7]; 2.51 µM (inactive) in experiment [8]; 1.44 µM (inactive) in [9]; 2.24 µM (inactive) in [10]; 24 µM (inactive) in experiment [11]; 6.1 µM (inactive) in experiment [12]. The GI50 in experiment [13] was 2.04 µM (inactive); in experiment [14], 7.23 µM (inactive); in [15], 1.96 µM (inactive); in experiment [16], 7 µM (inactive); in experiment [17], 4.29 µM (inactive); in experiment [18], 6.62 µM (inactive). In experiment [19], the GI50 is 9.08 µM (inactive).
As for `COC(=O)C(CNC(=O)/C=C/c1ccc(OC)c(OC)c1)NC(=O)/C=C/c1ccc(OC)c(OC)c1` (stereo unspecified), the GI50 was > 100 µM (inactive) in experiment [1]; > 100 µM (inactive) in experiment [2]; greater than 100000 nM in experiment [3]; > 100 µM (inactive) in experiment [4]; > 100 µM (inactive) in [5]; 67.3 µM (inactive) in experiment [6]. In addition, the GI50 in [7] is > 100 µM (inactive); in experiment [8], 75.7 µM (inactive); in experiment [9], 50 µM (inactive); in [10], > 100 µM (inactive); in experiment [11] it was > 100 µM (inactive); in [12], > 100 µM (inactive). Further, the GI50 was > 100 µM (inactive) in experiment [13]; 45.2 µM (inactive) in experiment [14]; > 100 µM (inactive) in experiment [15]; > 100 µM (inactive) in [16]; > 100 µM (inactive) in [17]; > 100 µM (inactive) in [18]. Further, the GI50 in experiment [19] was > 100 µM (inactive).
